Results on eleven compounds are retold here after ChEMBL document CHEMBL1201862, “PubChem BioAssay data set” (2004).

Each structure is given as a SMILES string.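 Cultured in 96-well plates, cells were exposed to test compound for 48 hours across five concentrations. Abbreviation: GI50, concentration required for 50% inhibition of growth.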 Activity calls are given as the source filed them. Rule as the data show it: active = GI50 up to about 1.1 µM and inactive = higher. Where only a bound is given, the exact number is not on record here.

What all share (assay): inhibition of tumour cell growth, NCI panel, 48 h
Experiment [1] has as its system NCI-H23.
For experiment [2], the system named is K562.
For experiment [3], the system named is SK-MEL-5.
In experiment [4] the test system is SF-295.
The test system of experiment [5] is NCI-H226.
Experiment [6] has as its system T47D.
Experiment [7] has as its system DU-145.
Experiment [8] relates to SW-620.
Experiment [9] deals with TK-10.
Experiment [10] deals with EKVX.
The subject of experiment [11] is SK-OV-3.
For experiment [12], the system named is MDA-MB-231.
Experiment [13] relates to NCI/ADR-RES.
For experiment [14], the system named is KM12.
Experiment [15] deals with MDA-MB-435.
Experiment [16] deals with UO-31.
The test system of experiment [17] is SR.
Experiment [18] has as its system SNB-19.

With `O=P(c1ccccc1)(c1ccccc1)C(NCc1ccccc1)c1ccc(F)cc1` (configuration not stated), the GI50 in [1] was 13.6 µM (inactive); in experiment [2] it was 18.7 µM (inactive); in experiment [3], 15.9 µM (inactive); in [4], 15.2 µM (inactive); in experiment [5], 16.2 µM (inactive); in experiment [6], 26.5 µM (inactive). The GI50 is 20 µM (inactive) in experiment [7]; 18.5 µM (inactive) in experiment [8]; 15.9 µM (inactive) in [9]; 12.7 µM (inactive) in experiment [10]; 16.1 µM (inactive) in experiment [11]; 11.1 µM (inactive) in [12]. The GI50 in experiment [13] was 14 µM (inactive); in [14], 13.2 µM (inactive); in experiment [15], 8.41 µM (inactive); in experiment [16], 12.8 µM (inactive); in experiment [17] it was 15 µM (inactive); in experiment [18], 17.9 µM (inactive).

Take `COC(=O)/C=C1/OC(c2ccccc2)=CC1=O`: the GI50 in [1] was 17.6 µM (inactive); in experiment [2], 12 µM (inactive); in experiment [3], 19.9 µM (inactive); in experiment [4], 14.2 µM (inactive); in experiment [5] it was 24.6 µM (inactive); in experiment [6], 20.9 µM (inactive). Moreover, the GI50 in experiment [7] is 13.7 µM (inactive); in experiment [8] it was 16.1 µM (inactive); in [9], 18.6 µM (inactive); in experiment [10], 17.9 µM (inactive); in experiment [11], 17.5 µM (inactive); in experiment [12], 17 µM (inactive). Also, the GI50 in [13] was 23.2 µM (inactive); in experiment [14], 16.7 µM (inactive); in experiment [15], 18.3 µM (inactive); in experiment [16], 17.8 µM (inactive); in experiment [17], > 23.4 µM (inactive); in experiment [18] it was 17.3 µM (inactive).

`CCC1(CC)C(=O)N(C(=O)c2ccc(Cl)cc2)N(C(=O)c2ccccc2Cl)C1=O`: the GI50 is 32.1 µM (inactive) in experiment [1]; 45.7 µM (inactive) in experiment [2]; 75 µM (inactive) in experiment [3]; 63.5 µM (inactive) in experiment [4]; 16.2 µM (inactive) in [5]; 62.7 µM (inactive) in experiment [6]. The GI50 in experiment [7] is > 100 µM (inactive); in [8], 29.4 µM (inactive); in experiment [9], 31.2 µM (inactive); in [10], 4.58 µM (inactive); in experiment [11], > 100 µM (inactive); in [12] it was 50.5 µM (inactive). Moreover, the GI50 is 28.3 µM (inactive) in [13]; 52.8 µM (inactive) in [14]; 11.2 µM (inactive) in experiment [15]; > 100 µM (inactive) in experiment [16]; 34.9 µM (inactive) in [17]; 66.1 µM (inactive) in experiment [18].

On to `C=C1C2CC[C@@](C)(O)C2[C@H]2OC(=O)C(=C)[C@@H]2C[C@H]1O` (some centres not stated), for which the GI50 in [1] was 17.7 µM (inactive); in experiment [2], 28.6 µM (inactive); in experiment [3], 8.38 µM (inactive); in experiment [4], 54.6 µM (inactive); in [5], 18 µM (inactive); in experiment [6] it was 17.8 µM (inactive). The GI50 in experiment [7] was 15.5 µM (inactive); in experiment [8] it was 29.7 µM (inactive); in experiment [9], 14.9 µM (inactive); in experiment [10], 29 µM (inactive); in experiment [11], 29.1 µM (inactive); in [12], 18.8 µM (inactive). The GI50 is 18.8 µM (inactive) in experiment [13]; 19.7 µM (inactive) in experiment [14]; 26 µM (inactive) in [15]; 13.6 µM (inactive) in [16]; 17.1 µM (inactive) in experiment [17]; 48.6 µM (inactive) in experiment [18].

Regarding `Cc1ccc(N2CN3OC(=O)N(c4ccccc4)[C@@]3(c3ccccc3)C2)cc1`, the GI50 in [1] was 24.2 µM (inactive); in experiment [2] it was 22.3 µM (inactive); in [3] it was 31.3 µM (inactive); in experiment [4], 17.5 µM (inactive); in experiment [5] it was 27 µM (inactive); in experiment [6] it was 14.2 µM (inactive). In addition, the GI50 in [7] was 48.4 µM (inactive); in experiment [8] it was 80 µM (inactive); in experiment [9], 50.5 µM (inactive); in [10], 45.7 µM (inactive); in experiment [11], 40.6 µM (inactive); in [12] it was 26.9 µM (inactive). In addition, the GI50 in experiment [13] is 29 µM (inactive); in experiment [14], 33.9 µM (inactive); in experiment [15], 26.4 µM (inactive); in [16] it was 57.4 µM (inactive); in experiment [17], 16 µM (inactive); in experiment [18] it was 92 µM (inactive).

Consider `COC(=O)CCc1cc(O)c2c(c1)C(C(=O)OC)C(c1ccc(O)c(O)c1)O2` (configuration not stated), for which the GI50 is 26.6 µM (inactive) in experiment [1]; 2.61 µM (inactive) in [2]; 4.06 µM (inactive) in [3]; 17.7 µM (inactive) in [4]; 26.4 µM (inactive) in experiment [5]; 6.37 µM (inactive) in [6]. For the same compound, the GI50 in [7] is > 41.9 µM (inactive); in [8] it was 6.17 µM (inactive); in [9] it was 53.1 µM (inactive); in experiment [10] it was 34.4 µM (inactive); in [11], 33.6 µM (inactive); in experiment [12], 11.7 µM (inactive). Further, the GI50 in experiment [13] was 42.3 µM (inactive); in experiment [14], 3.88 µM (inactive); in [15], 1.48 µM (inactive); in experiment [16], 26.2 µM (inactive); in experiment [17], 3.45 µM (inactive); in [18] it was 11.1 µM (inactive).

Turning to `CC1=NN(C(=O)CC(=O)Nc2cccc(C)c2)C(=O)C1/N=N/c1ccc(S(=O)(=O)CCOS(=O)(=O)O)cc1` (configuration not stated), the GI50 in experiment [1] is 0.76 µM (active); in [2], 0.388 µM (active); in experiment [3], 0.369 µM (active); in experiment [4] it was 2.82 µM (inactive); in experiment [5], 0.718 µM (active); in [6] it was > 34.5 µM (inactive). Moreover, the GI50 in experiment [7] was 32.3 µM (inactive); in experiment [8], 0.406 µM (active); in experiment [9] it was 13.1 µM (inactive); in [10], 32.2 µM (inactive); in experiment [11] it was 0.326 µM (active); in [12], 0.275 µM (active). In addition, the GI50 is 0.344 µM (active) in experiment [13]; 2.51 µM (inactive) in experiment [14]; 0.211 µM (active) in [15]; 2.93 µM (inactive) in [16]; 0.49 µM (active) in experiment [17]; 4 µM (inactive) in experiment [18].

For `CCCC(=O)Oc1c2ccsc2c(OC(=O)CCC)c2ccsc12`, the GI50 in [1] was 0.74 µM (active); in experiment [2] it was 1.24 µM (inactive); in experiment [3] it was 0.804 µM (active); in [4], 0.457 µM (active); in experiment [5], 4 µM (inactive); in experiment [6] it was 6.37 µM (inactive). In addition, the GI50 in experiment [7] was 0.857 µM (active); in experiment [8] it was 1.63 µM (inactive); in [9], 4.48 µM (inactive); in [10], 2.27 µM (inactive); in experiment [11] it was 0.75 µM (active); in experiment [12] it was 1.49 µM (inactive). Moreover, the GI50 in [13] is 1.04 µM (active); in experiment [14], 7.64 µM (inactive); in experiment [15], 0.305 µM (active); in experiment [16], 2.53 µM (inactive); in experiment [17], 0.444 µM (active); in [18], 2.6 µM (inactive).

In the case of `O=C(O)[C@@H]1[C@H](C(=O)O)[C@H](C(=O)O)C[C@@H]1C(=O)O`, the GI50 in experiment [1], in [2], in experiment [3], in experiment [4], in [5] and in experiment [6] was > 100 µM (inactive) throughout. Further, the GI50 in [7], in [8], in experiment [9], in experiment [10], in [11] and in experiment [12] was > 100 µM (inactive) throughout. The GI50 in [13], in experiment [14], in experiment [15], in experiment [16], in experiment [17] and in experiment [18] was > 100 µM (inactive) each time.

In the case of `CS/C=C\C(=O)O[C@H]1C[C@@H]2[C@@H](O)c3occ(C)c3C[C@]2(C)[C@@H](C)C1`, the GI50 in experiment [1] was 30.3 µM (inactive); in [2], 15.4 µM (inactive); in experiment [3], 14.9 µM (inactive); in experiment [4], 29.6 µM (inactive); in experiment [5] it was 13.4 µM (inactive); in [6], 24.4 µM (inactive). Besides, the GI50 in experiment [7] is 27.9 µM (inactive); in experiment [8], 33.3 µM (inactive); in experiment [9], 50 µM (inactive); in experiment [10] it was 37.5 µM (inactive); in [11], 36.6 µM (inactive); in [12], 22.4 µM (inactive). Further, the GI50 is 18.5 µM (inactive) in [13]; 91 µM (inactive) in experiment [14]; 23.1 µM (inactive) in experiment [15]; 35.1 µM (inactive) in [17]; 35.6 µM (inactive) in experiment [18].

Turning to `CCC(C)C1NC(=O)C(NC(=O)C(CC(C)C)N(C)C(=O)[C@@H]2CC(O)CN2C(=O)[C@H](C)O)C(C)OC(=O)[C@H](Cc2ccc(OC)cc2)N(C)C(=O)[C@@H]2CCCN2C(=O)[C@H](CC(C)C)NC(=O)C(C)C(=O)[C@H](C(C)C)OC(=O)CC1O` (some centres not stated), the GI50 was 0.0169 µM (active) in experiment [1]; 0.29 µM (active) in experiment [2]; 0.0359 µM (active) in experiment [3]; 0.225 µM (active) in experiment [4]; 0.0641 µM (active) in experiment [5]; 0.0452 µM (active) in experiment [6]. The GI50 was 0.356 µM (active) in experiment [7]; 0.235 µM (active) in experiment [8]; 0.676 µM (active) in experiment [9]; 0.0201 µM (active) in experiment [10]; 0.179 µM (active) in experiment [11]; 0.349 µM (active) in experiment [12]. The GI50 in [13] was 6.84 µM (inactive); in [14], 0.035 µM (active); in experiment [15] it was 0.152 µM (active); in experiment [16], 1.44 µM (inactive); in experiment [17], 0.345 µM (active); in experiment [18], 0.164 µM (active).
